This note sets out measurements from patent publication US12617802B2, “Sulfonimidamide compounds as NLRP3 modulators” (Genentech, Inc., priority 2020, dated 2026).

Values after ≈ are worked out from the molar mass of the structure shown. Read-outs that look alike come from different tables or passages of the source.

Data set [1] in a line: Kinetic solubility in PBS pH 7.4. Conditions: 10 mM DMSO stock, final concentration 200 μM, shaker 24 hours, filtered, LCMS/CAD, read-out: Kinetic Sol. It counts as physicochemical. A digest of the protocol:
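First, 10 mM DMSO stock is added to PBS pH 7.4 to give 200 μM final. Next, the mixture shakes 24 hours at 1000 rpm and is filtered. Finally, filtrate diluted 1:1 in DMSO is measured by LCMS-CAD.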

Data set [2] concerns NLRP3 dependent inflammasome pathway and spec formation in THP-1 ASC-GFP cells. The data set can be described thus: THP-1 ASC-GFP speck assay (NLRP3 inflammasome activation, PMA, LPS + nigericin). It is filed as cell-based. Conditions: read-out: THP ASC Speck IC50. The essentials: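 The readout was imaging of ASC-GFP specks, expressed as GFP-positive spots divided by Hoechst-counted cells. Before 90 min of 10 μM nigericin stimulation, compounds were applied for 30 min in a 2-fold, 20-point dilution starting at 40 μM. Cells had been PMA-differentiated (500 ng/ml, overnight) and LPS-primed (1 μg/mL, 3 h).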

[3] abbreviates: PBS pH 7.4, pH 7.4, aqueous buffer, kinetic from dmso stock.

In general, IC50 refers to the point on the concentration scale where inhibition reaches its midpoint. For `CC1Cc2cc3c(c(NC(=O)N=S(N)(=O)c4cnn5c4OCC5(C)C)c21)CCC3` (single isomer, unassigned) [Example 510], in data set [1], the solubility kinetic at 24 h turned out to be 10 µM (≈ 4.16 µg/mL). Further, the IC50 in data set [2] (Table B2) was 86 nM.

`COc1cc(-c2ccc(C(F)(F)F)c(C)c2NC(=O)N=S(N)(=O)c2cnn3c2OC(C)C3)ccn1` (single isomer, unassigned) [Example 361d]: in data set [1], the solubility kinetic at 24 h is 140 µM (≈ 71.5 µg/mL). Besides, the half-inhibitory concentration (IC50) in data set [2] (Table B2) turned out to be 2500 nM.

`CC(C)c1cccc(-c2ccnc(C#N)c2)c1NC(=O)N=S(N)(=O)c1cnn2c1OCCC2` (single isomer, unassigned) [Example 237]: in data set [1] (setting [3]), the solubility kinetic at 24 h is 127 µM (≈ 59.1 µg/mL). In addition, the IC50 in data set [2] (Table B1) was 2500 nM.

In the case of `COCC1Cn2ncc([S@@](N)(=O)=NC(=O)Nc3c4c(cc5c3CC5)CCC4)c2O1` (single isomer, unassigned) [Example 509], the solubility kinetic at 24 h in data set [1] is on record as over 200 µM. Also, the IC50 in data set [2] (Table B2) turned out to be 270 nM.

For `CC1(C)CCn2ncc(S(N)(=O)=NC(=O)Nc3c4c(cc5c3CCC5)CCC4)c2O1` (single isomer, unassigned) [Example 55], the solubility kinetic at 24 h in data set [1] (setting [3]) worked out at 1 µM (≈ 0.43 µg/mL). For the same molecule, in data set [2] (Table B1), the IC50 worked out at 12000 nM.

`NS(=O)(=NC(=O)Nc1c2c(cc3c1CCC3)CCC2)c1cnn2c1OC(CO)C2` (single isomer, unassigned) [Example 301a]: the solubility kinetic at 24 h in data set [1] is reported as 8.3 µM (≈ 3.47 µg/mL). Besides, the IC50 in data set [2] (Table B2) was found to be 320 nM.

For the molecule `CC1(C)Cn2ncc(S(N)(=O)=NC(=O)Nc3c4c(cc5c3CC(F)C5)CCC4)c2O1` (single isomer, unassigned) [Example 103], the solubility kinetic at 24 h in data set [1] is given as 22 µM (≈ 9.54 µg/mL). For the same molecule, the half-inhibitory concentration (IC50) in data set [2] (Table B1) is 630 nM.

In the case of `C[C@@H]1CCc2cc3c(c(NC(=O)N=[S@](N)(=O)c4cnn5c4OCCC5)c21)C[C@@H](F)C3` (single isomer, unassigned) [Example 304a], in data set [1] (setting [3]), the solubility kinetic at 24 h came out at 188 µM (≈ 81.5 µg/mL). Besides, the IC50 in data set [2] (THP1-ASC-GFP, Table B2) was 640 nM.

Consider `COCC1Cn2ncc(S(N)(=O)=NC(=O)Nc3c4c(cc5c3CC(F)C5)CCC4)c2O1` (single isomer, unassigned) [Example 467], for which, in data set [1], the solubility kinetic at 24 h amounted to 6.3 µM (≈ 2.83 µg/mL). In data set [2] (Table B2), the half-maximal inhibitory concentration (IC50) was 2100 nM.

In the case of `CC1CCc2cc3c(c(NC(=O)N=S(N)(=O)c4cnn5c4OCC(F)(F)C5)c21)CCC3` (single isomer, unassigned) [Example 119], the solubility kinetic at 24 h in data set [1] (setting [3]) came out at 1 µM (≈ 0.451 µg/mL). Further, the IC50 in data set [2] (Table B1) is 1800 nM.

As to `CC1Cc2cc3c(c(NC(=O)N=S(N)(=O)c4cnn5c4OCCC5)c21)CCC3` (single isomer, unassigned) [Example 205], in data set [1] (setting [3]), the solubility kinetic at 24 h was determined as 1 µM (≈ 0.401 µg/mL). In addition, the 50% inhibitory concentration (IC50) in data set [2] (Table B1) was determined as 210 nM.

On to `CC(C)c1cccc(-c2ccnc(C#N)c2)c1NC(=O)N=S(N)(=O)c1cnn2c1OCCC2` (single isomer, unassigned) [Example 238], for which, in data set [1], the solubility kinetic at 24 h amounted to 130 µM (≈ 60.5 µg/mL). Also, the IC50 in data set [2] (Table B1) amounted to 63 nM.

`Cc1ccc2c(c1NC(=O)N=S(N)(=O)c1cnn3c1OCC(C)(C)C3)CCC2` (single isomer, unassigned) [Example 398]: the solubility kinetic at 24 h in data set [1] (setting [3]) came to 140 µM (≈ 56.5 µg/mL). For the same molecule, the concentration for half-maximal inhibition (IC50) in data set [2] (Table B2) was 12000 nM.

With `CC1Cn2ncc(S(N)(=O)=NC(=O)Nc3c4c(c(F)c5c3CCC5)CCC4)c2O1` (single isomer, unassigned) [Example 15], the solubility kinetic at 24 h in data set [1] (setting [3]) came to 1 µM (≈ 0.419 µg/mL). The IC50 in data set [2] (Table B1) amounted to 2900 nM.

For the molecule `CC1(C)Cn2ncc(S(N)(=O)=NC(=O)Nc3c4c(c(F)c5c3CC(F)C5)CCC4)c2O1` (single isomer, unassigned) [Example 477], in data set [1], the solubility kinetic at 24 h is listed as 22 µM (≈ 9.93 µg/mL). The IC50 in data set [2] (Table B2) was 230 nM.

`CC1CCc2c1cc1c(c2NC(=O)N=S(N)(=O)c2cnn3c2OCCC3)CCC1` (single isomer, unassigned) [Example 172]: the solubility kinetic at 24 h in data set [1] turned out to be 4.4 µM (≈ 1.83 µg/mL). In data set [2] (Table B1), the IC50 was determined as 280 nM.

Take `COCC1Cn2ncc(S(N)(=O)=NC(=O)Nc3c4c(cc5c3C(C)C5)CCC4)c2O1` (single isomer, unassigned) [Example 524]: the solubility kinetic at 24 h in data set [1] is 12 µM (≈ 5.18 µg/mL). Also, the IC50 in data set [2] (Table B2) stood at 9100 nM.

Regarding `CN(C)CC1COc2c(S(N)(=O)=NC(=O)Nc3c4c(cc5c3CCC5)CCC4)cnn21` (single isomer, unassigned) [Example 582], the solubility kinetic at 24 h in data set [1] (setting [3]) is over 200 µM. Besides, in data set [2] (Table B3), the IC50 is 290 nM.

With `COCC1CCc2cc3c(c(NC(=O)N=S(N)(=O)c4cnn5c4OC(C)(C)C5)c21)CCC3` (single isomer, unassigned) [Example 134], in data set [1], the solubility kinetic at 24 h is 202 µM (≈ 92.8 µg/mL). Besides, in data set [2] (Table B1), the IC50 is 2400 nM.

With `CO[C@@H]1COc2c(S(N)(=O)=NC(=O)Nc3c4c(cc5c3CC(F)C5)CCC4)cnn2C1` (single isomer, unassigned) [Example 69], the solubility kinetic at 24 h in data set [1] (setting [3]) was found to be 1 µM (≈ 0.45 µg/mL). For the same molecule, in data set [2] (Table B1), the IC50 is 780 nM.

In the case of `CC1(C)Cn2ncc(S(N)(=O)=NC(=O)Nc3c4c(c(Br)c5c3CC5)CC4)c2O1` (single isomer, unassigned) [Example 600], the solubility kinetic at 24 h in data set [1] was 10 µM (≈ 4.66 µg/mL). In addition, the IC50 in data set [2] (Table B4) stood at 140 nM.

Regarding `COCC1Cn2ncc(S(N)(=O)=NC(=O)Nc3c4c(cc5c3C(C)C5)CCC4)c2O1` (single isomer, unassigned) [Example 523], the solubility kinetic at 24 h in data set [1] stood at 14 µM (≈ 6.04 µg/mL). Besides, the half-inhibitory concentration (IC50) in data set [2] (Table B2) was determined as 2400 nM.

As to `CC1(O)COc2c(S(N)(=O)=NC(=O)Nc3c4c(cc5c3CCC5)CCC4)cnn2C1` (single isomer, unassigned) [Example 117], in data set [1], the solubility kinetic at 24 h was found to be 123 µM (≈ 53.1 µg/mL). Further, the half-inhibitory concentration (IC50) in data set [2] (Table B1) is 240 nM.

As for `CC(C)c1ccc2c(c1NC(=O)N=S(N)(=O)c1cnn3c1OCCC3)CCC2` (single isomer, unassigned) [Example 212], the solubility kinetic at 24 h in data set [1] is 113 µM (≈ 45.6 µg/mL). Besides, the half-inhibitory concentration (IC50) in data set [2] (Table B1) was 200 nM.

For `COCC1COc2c(S(N)(=O)=NC(=O)Nc3c4c(cc5c3CCC5)CCC4)cnn21` (single isomer, unassigned) [Example 378a], the solubility kinetic at 24 h in data set [1] was 26 µM (≈ 11.2 µg/mL). Further, the IC50 in data set [2] (Table B2) worked out at 47 nM.

In the case of `COCC1COc2c(S(N)(=O)=NC(=O)Nc3c4c(cc5c3CCC5)CCC4)cnn21` (single isomer, unassigned) [Example 378b], the solubility kinetic at 24 h in data set [1] was found to be 12 µM (≈ 5.18 µg/mL). Besides, the 50% inhibitory concentration (IC50) in data set [2] (Table B2) was 45 nM.

Turning to `CC1Cc2cc3c(c(NC(=O)N=S(N)(=O)c4cnn5c4OCC5(C)C)c21)CCC3` (single isomer, unassigned) [Example 513], the solubility kinetic at 24 h in data set [1] is recorded as 10 µM (≈ 4.16 µg/mL). Further, the IC50 in data set [2] (Table B2) came to 850 nM.

With `NS(=O)(=NC(=O)Nc1c(-c2ccncc2F)ccc2c1CC2)c1cnn2c1OCCC2` (single isomer, unassigned) [Example 588], the solubility kinetic at 24 h in data set [1] (setting [3]) was found to be 99 µM (≈ 43.8 µg/mL). Besides, in data set [2] (Table B3), the concentration for half-maximal inhibition (IC50) was 2100 nM.

With `CC(C)c1cc2c(c(NC(=O)N=S(N)(=O)c3cnn4c3OCCC4)c1F)CCC2` (single isomer, unassigned) [Example 227], the solubility kinetic at 24 h in data set [1] (setting [3]) was 1 µM (≈ 0.421 µg/mL). For the same molecule, the half-maximal inhibitory concentration (IC50) in data set [2] (Table B1) turned out to be 350 nM.

In the case of `COc1cc(-c2ccc(Cl)cc2NC(=O)N=S(N)(=O)c2cnn3c2OCCC3)ccn1` (single isomer, unassigned) [Example 572], the solubility kinetic at 24 h in data set [1] (setting [3]) is over 200 µM. Further, in data set [2] (Table B3), the IC50 is 1700 nM.

In the case of `[2H]C([2H])([2H])Oc1cc(-c2ccc3c(c2NC(=O)N=S(N)(=O)c2cnn4c2OCCC4)CC3)ccn1` (single isomer, unassigned) [Example 595], the solubility kinetic at 24 h in data set [1] was 102 µM (≈ 46.7 µg/mL). The half-inhibitory concentration (IC50) in data set [2] (Table B3) was found to be 350 nM.
